Results published in patent publication US20240317710A1, “CRYSTALLINE CSF-1R INHIBITOR ACIDIC SALT, PREPARATION METHOD THEREFOR AND USE THEREOF” (Abbisko Therapeutics Co. Ltd., priority 2021, published 2024).
Structures can show the parent of a compound that is named as a salt.

Key:
[1] = Solubility determination in deionized water; assay type: physicochemical; conditions: for Solubility S: ultrasonication, stepwise addition of water; for Dissolution result: visual observation
Description: About 2 mg of each of the various crystalline acidic salts and the compound of formula (I) in free form was precisely weighed out into a 2 mL glass vial, and about 100 μL of deionized water was added each time; the mixture was ultrasonicated, and if the compound was not dissolved, the step of adding deionized water and performing ultrasonication was repeated until the compound was completely dissolved or the concentration was <0.2 mg/mL. The total volume of the water added was recorded, the dissolution behavior and result were observed, and the solubility of each compound was calculated.

[2] = Hygroscopic behavior test by dynamic vapor sorption (DVS); assay type: physicochemical; conditions: for Hygroscopic weight gain %: 25° C., DVS
Description: The experimental method of characterizing the crystalline acidic salts of the compound of formula (I) using dynamic vapor sorption (DVS) is as follows: a small amount of crystalline acidic salt powder of the compound of formula (I) was placed in a precision sample pan that came with the instrument; after the sample was loaded, the aluminum pan was sent into the instrument for analysis. In the present patent, the instruments used for dynamic vapor sorption were all the DVS Intrinsic model, the experimental parameter was set to using nitrogen as a carrier gas, the constant temperature was set to 25° C., the rate of mass percentage change over a unit of time (dm/dt)=0.01%/min was used as a criterion for determining if an equilibrium is reached, and the program humidity change cycle was set as follows: the initial relative humidity was 0%, the relative humidity was 90% at the end of the cycle, 2 cycles were set, and each 10% R.H. change was a step.
The inventors of the present invention measured the hygroscopic weight gains of each of the various crystalline forms in various relative humidity conditions (hygroscopic weight gain/pre-hygroscopic weight[…]) according to the dynamic vapor sorption method, and assessed the hygroscopicity of the different crystalline compounds.

Row | SMILES | Solubility S [1] | Dissolution result [1] | Hygroscopic weight gain % ([2]; relative humidity 0.0 %) | Hygroscopic weight gain % ([2]; relative humidity 10.0 %) | Hygroscopic weight gain % ([2]; relative humidity 20.0 %) | Hygroscopic weight gain % ([2]; relative humidity 30.0 %) | Hygroscopic weight gain % ([2]; relative humidity 40.0 %) | Hygroscopic weight gain % ([2]; relative humidity 50.0 %) | Hygroscopic weight gain % ([2]; relative humidity 60.0 %) | Hygroscopic weight gain % ([2]; relative humidity 70.0 %) | Hygroscopic weight gain % ([2]; relative humidity 80.0 %) | Hygroscopic weight gain % ([2]; relative humidity 90.0 %) | hygroscopic weight gain [2]
1 | Cc1nc(NC(=O)N2CCC(C)(C)C2=O)ccc1Oc1ccnc(-c2cnn(C)c2)c1 [Sulfate crystalline form I, 3,3-dimethyl-N-(6-methyl-5-((2-(1-methyl-1H-pyrazol-4-yl)pyridin-4-yl)oxy)pyridin-2-yl)-2-oxopyrrolidine-1-carboxamide] | S > 20 mg/mL | Clear solution |  |  |  |  |  |  |  |  |  |  | 
2 | Cc1nc(NC(=O)N2CCC(C)(C)C2=O)ccc1Oc1ccnc(-c2cnn(C)c2)c1 [Citrate crystalline form I, 3,3-dimethyl-N-(6-methyl-5-((2-(1-methyl-1H-pyrazol-4-yl)pyridin-4-yl)oxy)pyridin-2-yl)-2-oxopyrrolidine-1-carboxamide] | S > 20 mg/mL | Clear solution |  |  |  |  |  |  |  |  |  |  | 
3 | Cc1nc(NC(=O)N2CCC(C)(C)C2=O)ccc1Oc1ccnc(-c2cnn(C)c2)c1 [Hydrochloride crystalline form I, 3,3-dimethyl-N-(6-methyl-5-((2-(1-methyl-1H-pyrazol-4-yl)pyridin-4-yl)oxy)pyridin-2-yl)-2-oxopyrrolidine-1-carboxamide] | S > 20 mg/mL | Clear solution | 0.00% | 0.13% | 0.24% | 0.34% | 0.42% | 0.52% | 0.63% | 0.81% | 1.37% | 19.40% | less than 10%
4 | Cc1nc(NC(=O)N2CCC(C)(C)C2=O)ccc1Oc1ccnc(-c2cnn(C)c2)c1 [Tartrate crystalline form I, 3,3-dimethyl-N-(6-methyl-5-((2-(1-methyl-1H-pyrazol-4-yl)pyridin-4-yl)oxy)pyridin-2-yl)-2-oxopyrrolidine-1-carboxamide] | S > 20 mg/mL | Clear solution | 0.00% | 0.83% | 1.79% | 2.42% | 2.88% | 3.32% | 3.77% | 4.44% | 5.17% | 10.61% | 
5 | Cc1nc(NC(=O)N2CCC(C)(C)C2=O)ccc1Oc1ccnc(-c2cnn(C)c2)c1 [Fumarate crystalline form I, 3,3-dimethyl-N-(6-methyl-5-((2-(1-methyl-1H-pyrazol-4-yl)pyridin-4-yl)oxy)pyridin-2-yl)-2-oxopyrrolidine-1-carboxamide] | S > 20 mg/mL | Clear solution |  |  |  |  |  |  |  |  |  |  | 

Second part, the compound after the results:

Row | Solubility S [1] | Dissolution result [1] | Hygroscopic weight gain % ([2]; relative humidity 0.0 %) | Hygroscopic weight gain % ([2]; relative humidity 10.0 %) | Hygroscopic weight gain % ([2]; relative humidity 20.0 %) | Hygroscopic weight gain % ([2]; relative humidity 30.0 %) | Hygroscopic weight gain % ([2]; relative humidity 40.0 %) | Hygroscopic weight gain % ([2]; relative humidity 50.0 %) | Hygroscopic weight gain % ([2]; relative humidity 60.0 %) | Hygroscopic weight gain % ([2]; relative humidity 70.0 %) | Hygroscopic weight gain % ([2]; relative humidity 80.0 %) | Hygroscopic weight gain % ([2]; relative humidity 90.0 %) | hygroscopic weight gain [2] | SMILES
6 | S > 20 mg/mL | Clear solution | 0.02% | 1.19% | 1.86% | 2.32% | 2.78% | 3.37% | 3.97% | 4.66% | 5.46% | 6.383% |  | Cc1nc(NC(=O)N2CCC(C)(C)C2=O)ccc1Oc1ccnc(-c2cnn(C)c2)c1 [Phosphate crystalline form I, 3,3-dimethyl-N-(6-methyl-5-((2-(1-methyl-1H-pyrazol-4-yl)pyridin-4-yl)oxy)pyridin-2-yl)-2-oxopyrrolidine-1-carboxamide]
7 | S < 1.5 mg/mL | Not clear |  |  |  |  |  |  |  |  |  |  |  | Cc1nc(NC(=O)N2CCC(C)(C)C2=O)ccc1Oc1ccnc(-c2cnn(C)c2)c1 [Compound in free form, 3,3-dimethyl-N-(6-methyl-5-((2-(1-methyl-1H-pyrazol-4-yl)pyridin-4-yl)oxy)pyridin-2-yl)-2-oxopyrrolidine-1-carboxamide]
8 | S > 20 mg/mL | Clear solution | 0.00% | 0.11% | 0.18% | 0.20% | 0.24% | 0.31% | 0.88% | 8.93% | 12.44% | 23.15% |  | Cc1nc(NC(=O)N2CCC(C)(C)C2=O)ccc1Oc1ccnc(-c2cnn(C)c2)c1 [Methanesulfonate crystalline form II, 3,3-dimethyl-N-(6-methyl-5-((2-(1-methyl-1H-pyrazol-4-yl)pyridin-4-yl)oxy)pyridin-2-yl)-2-oxopyrrolidine-1-carboxamide]
9 | S > 20 mg/mL | Clear solution |  |  |  |  |  |  |  |  |  |  |  | Cc1nc(NC(=O)N2CCC(C)(C)C2=O)ccc1Oc1ccnc(-c2cnn(C)c2)c1 [Malate crystalline form I, 3,3-dimethyl-N-(6-methyl-5-((2-(1-methyl-1H-pyrazol-4-yl)pyridin-4-yl)oxy)pyridin-2-yl)-2-oxopyrrolidine-1-carboxamide]
